Assay results reported in US4092315A, “Novel crystalline forms of prazosin hydrochloride” (Pfizer Inc., priority 1976, dated 1978).
Entries after “also recorded” stand apart in the source; their conditions may differ.

Assays:
Assay type in all cases: physicochemical
[1] = Conversion to hydrate on contact with water (microscopy, trituration); conditions: drop of water on microscope slide or excess of water, hydrochloride
Excerpt: When samples of the α-, β- and γ- polymorphs are triturated with water the resulting product in each case is found to give an infrared spectrum identical to that of the prazosin hydrochloride hydrates.
The β-form consisted of dark, monoclinic crystals, while the γ-form and polyhydrate are both needle-like crystals.
This is in agreement with the above mentioned change in the infrared spectra of the α-, β-, γ- polymorphs to that of the hydrates of prazosin hydrochloride upon trituration of each of the crystalline polymorphs with water. Stability Studies

[2] = Hygroscopicity: water content (Karl Fischer) of samples on exposure to humidity; conditions: for Water Content: 37° C.; for hygroscopicity (in words): compared with the other forms
Protocol: Since moisture uptake affects integrity of a drug form, the α-, β- and γ- crystalline polymorphs of prazosin hydrochloride were compared for their relative hygroscopicity. Samples of each polymorph were placed in an open beaker and stored in a chamber maintained at 37° C. and 75% relative humidity. Portions were withdrawn periodically and their water content determined by the Karl Fischer method.

[3] = Compressed disc (intrinsic) dissolution in water at 37° C.; conditions: slope between 4 and 10 minutes, 150 rpm, hydrochloride
Protocol: Compressed disc dissolution studies were carried out by means of the procedure developed by Hamlin et al., J. Pharm, Sci., 51, 432(1962). A 300 mg. sample of powder was compressed against a flat surface at 3000 psi. for 2 minutes into a flat round disc using a tablet die of 7/16 inch diameter. The die holding the compressed disc was stoppered at the open end and placed into a plastic holder. This assembly was then placed into a jar containing 1000 ml. of water equilibrated at 37° C. The stirring rate of a teflon paddle centered in the jar was maintained at 150 revolutions per minute. The solution was pumped continuously through a Millipore filter ([…] pore size) into a flow cell of a Beckman Acta II spectrophotometer which automatically recorded any absorbance changes at 246 nm.
Table VI compares the intrinsic dissolution rates of various forms of prazosin hydrochloride. The rates were determined from the slopes of the compressed disc dissolution profiles between 4 and 10 minutes.

[4] = Moisture uptake of anhydrate, monohydrate and dihydrate at room temperature, 75% relative humidity
Protocol: When samples of the anhydrate and monohydrate are stored at room temperature and 75% relative humidity they absorb moisture rapidly to form the dihydrate (8% water) in about 24 hours.

[5] = Hygroscopicity: water content (Karl Fischer) of samples on exposure to humidity; conditions: room temperature, 20% relative humidity, initially 13.5% water
[6] = 5 days, 75% R.H., hydrochloride
[7] = 12 days, 75% R.H., hydrochloride
[8] = 25 days, 75% R.H., hydrochloride
[9] = 34 days, 75% R.H., hydrochloride

COc1cc2nc(N3CCN(C(=O)c4ccco4)CC3)nc(N)c2cc1OC.Cl [α-form, 2-[4-(2-furoyl)piperazin-1-yl]-4-amino-6,7-dimethoxyquinazoline hydrochloride]
conversion to hydrate on contact with water (in words) [1]: converted to the polyhydrate | conversion to hydrate on contact with water (in words) ([1]; listed as α-): sharp needle-like crystals of hydrate grew | Water Content [2, 6]: 0.32 % by Weight | Water Content [2, 7]: 0.85 % by Weight | Water Content [2, 8]: 1.18 % by Weight | Water Content [2, 9]: 1.54 % by Weight | hygroscopicity (in words) ([2]; hydrochloride): relatively non-hydroscopic when compared with the β- and γ-forms; also recorded: non-hygroscopic | Intrinsic Dissolution Rate ([3]; listed as α-): 3.25 μg/liter sec.

COc1cc2nc(N3CCN(C(=O)c4ccco4)CC3)nc(N)c2cc1OC.Cl [dihydrate, 2-[4-(2-furoyl)piperazin-1-yl]-4-amino-6,7-dimethoxyquinazoline hydrochloride]
equilibrium water content ([4]; after 4 days, room temperature, 75% relative humidity): 13.5%

COc1cc2nc(N3CCN(C(=O)c4ccco4)CC3)nc(N)c2cc1OC.Cl [β-form, 2-[4-(2-furoyl)piperazin-1-yl]-4-amino-6,7-dimethoxyquinazoline hydrochloride]
conversion to hydrate on contact with water (in words) ([1]; listed as β-): sharp needle-like crystals of hydrate grew | Water Content [2, 6]: 0.59 % by Weight | Water Content [2, 7]: 1.18 % by Weight | Water Content [2, 8]: 4.66 % by Weight | Water Content [2, 9]: 6.06 % by Weight | hygroscopicity (in words) ([2]; hydrochloride): hygroscopic | Intrinsic Dissolution Rate ([3]; listed as β-): 3.36 μg/liter sec.

COc1cc2nc(N3CCN(C(=O)c4ccco4)CC3)nc(N)c2cc1OC.Cl [methanolate, 2-[4-(2-furoyl)piperazin-1-yl]-4-amino-6,7-dimethoxyquinazoline hydrochloride]
Intrinsic Dissolution Rate ([3]; listed as Methanolate): 2.68 μg/liter sec.

COc1cc2nc(N3CCN(C(=O)c4ccco4)CC3)nc(N)c2cc1OC.Cl [polyhydrate, 2-[4-(2-furoyl)piperazin-1-yl]-4-amino-6,7-dimethoxyquinazoline hydrochloride]
Water Content ([5]; 18 days): 13.0% | Water Content ([5]; 35 days): 13.1% | Water Content ([2]; 10 days, 75% relative humidity, initially 13.7% water): 13.2% | Water Content ([2]; 23 days, 75% relative humidity, initially 13.7% water): 13.4% | moisture ([2]; other samples exposed to high humidity): up to 15% | Intrinsic Dissolution Rate ([3]; listed as Polyhydrate): 2.57 μg/liter sec.

COc1cc2nc(N3CCN(C(=O)c4ccco4)CC3)nc(N)c2cc1OC.Cl [anhydrate, 2-[4-(2-furoyl)piperazin-1-yl]-4-amino-6,7-dimethoxyquinazoline hydrochloride]
water content on storage (dihydrate formed) ([4]; about 24 hours, room temperature, 75% relative humidity): 8% | time to form the dihydrate ([4]; room temperature, 75% relative humidity): about 24 hours | Intrinsic Dissolution Rate ([3]; listed as Anhydrate): 2.35 μg/liter sec.

COc1cc2nc(N3CCN(C(=O)c4ccco4)CC3)nc(N)c2cc1OC.Cl [monohydrate, 2-[4-(2-furoyl)piperazin-1-yl]-4-amino-6,7-dimethoxyquinazoline hydrochloride]
reversion upon exposure to moist air (in words) ([4]; exposure to moist air): revert to polyhydrate

COc1cc2nc(N3CCN(C(=O)c4ccco4)CC3)nc(N)c2cc1OC.Cl [γ-form, 2-[4-(2-furoyl)piperazin-1-yl]-4-amino-6,7-dimethoxyquinazoline hydrochloride]
conversion to hydrate on contact with water (in words) ([1]; listed as γ-forms): sharp needle-like crystals of hydrate grew | Water Content [2, 6]: 0.16 % by Weight | Water Content [2, 7]: 4.61 % by Weight | Water Content [2, 8]: 9.47 % by Weight | Water Content [2, 9]: 9.05 % by Weight | hygroscopicity (in words) ([2]; hydrochloride): more hygroscopic then the β-form | change of form on exposure to moisture (in words) ([2]; infrared spectrum (KBr) after exposure to moisture): formation of a hydrate | Intrinsic Dissolution Rate ([3]; listed as γ-): 2.35 μg/liter sec.
